Data as given in US8034810B2, “Arylsulfonamido-substituted hydroxamic acid derivatives” (Novartis AG, priority 1999, dated 2011).
Structures can show the parent of a compound that is named as a salt.

These compounds were tested against T1, MT1-MMP (Homo sapiens, UniProt P50281) (assay: In vitro inhibition of MT1-MMP, fluorogenic peptide substrate). Details: catalytic domain of human MT1-MMP; substrate 10 μM; 37° C.
T1 construct: made in house
Assay type: biochemical
Description: The inhibitory activities of compounds of formula I on MT1-MMP, MMP1 (collagenase 1) and MMP2 (gelatinase A) can be determined as follows:
Stock solutions of substrate (MCA-Pro-Leu-Gly-Leu-Dpa-Ala-Arg-NH2, Knight, C. G., Willenbrock, F., Murphy, G., A novel coumarin-labelled peptide for sensitive continuous assays of the matrix metalloproteinases, FEBS lett., 296, 263-266, (1992)), are prepared in 100% DMSO at a concentration 1.0 mM. Stock solutions of inhibitors are prepared in 100% DMSO. The inhibitor is diluted into the assays from a solution in 100% DMSO, and controls substitute an equal volume of DMSO so that the final DMSO concentration from inhibitor and substrate dilutions in all assays is 6.0%. Assays are performed in assay buffer (150 mM NaCl, 10 mM CaCl2, 50 mM Tris-Cl pH7.5, 0.05% Brij-35) containing 6.0% DMSO once the substrate and inhibitor are diluted into it. The substrate concentration used in the assays is 10 μM. The test is carried out at 37° C. The fluorescence changes are monitored using an excitation wavelength of 320 nm and an emission wavelength of […]. The reaction mixture is added in duplicate to appropriate wells of a 96 well microfluor plate. The reaction mixture is preincubated with the inhibitor for 30 min, the reaction is started by the addition of MMP enzyme and the fluorescence intensity is measured for 10 min. A time point that is on a linear part of the curve is chosen to determine the activity. The inhibition results are expressed as the inhibitor concentrations that produced 50% inhibition (IC50) of the activity in the control (non-inhibited) reaction. In this test, the compounds of the formula I and their pharmacologically acceptable salts have an inhibiting concentration IC50 [μmol/litre] of 0.0001 and 0.030, usually of 0.0002 to 0.010, for MMP2 and an inhibiting concentration IC50 [μmol/litre] of 0.0005 and 0.125, usually of 0.001 to 0.05, for MT1-MMP.
Plasmid: The catalytic domain of the cDNA fragment encoding a full length of human MT1-MMP gene [from Prof. Motoharu Seiki, Institute of Medical Science, The University of Tokyo; Sato, H., Takino, T., Okada, Y., Cao, J., Shinagawa, A., Yamamoto, E. and Seiki, M. Nature (London), 370:61-65, 1994)] is amplified by polymerase chain reaction (PCR). […] The resulting PCR product of a 519-bp fragment is subcloned between the NdeI and BamHI unique sites of pET11a (Stratagene). The sequence of catalytic domain of MT1-MMP (CD-MT1-MMP) is verified by the ABI PRIS™ dye terminator cycle sequencing kit with the ABI PRISM™ 377 DNA sequencer (Perkin Elmer).
Expression and Purification: The subcloned CD-MT1-MMP is used to transfect E. coli strain BL21-[DE3] (Hanahan, D. J. Mol. Biol. 1983; 166(4):557-80) and expressed as insoluble inclusion body materials. Transfectants are grown at 37° C. in 50 ml Luria-Bertani (LB) medium in the presence of 50 µg/ml ampicillin to a cell density of OD600=0.6-1.0, and CD-MT1-MMP production is induced with 1 mM isopropyl-1-D-galactopyranoside (IPTG). After treatments with 5 mg/ml lysozyme and 10 μg/ml DNase I, the inclusion bodies are prepared from the harvested cells by using the detergent buffer containing 0.2 M NaCl, 1% w/v deoxycholic acid, and 1% v/v Nonidet P40. The solubilization is achieved by resuspending the inclusion bodies in the solubilization buffer composed of 6 M urea, 100 mM 2-mercaptoethanol, and 20 mM Tris-Cl, pH8.5. The enzyme is purified and renaturated using 10 ml of a Q-Sepharose (Amersham Pharmacia Biotech) column equilibrated with 5 mM CaCl2, 0.02% v/v NaN3, in 20 mM Tris-Cl pH7.5. After washing with three volumes of the same buffer, the bound proteins are eluted with two volumes of a linear gradient of 0.5-1.0 M NaCl. The collected fractions (1 ml each) are dialyzed for 6 h in equilibrated buffer. Superdex G200 column (1×15 cm) (Amersham Pharmacia) is equilibrated in 20 mM Tris-Cl, pH 7.5, 5 mM CaCl2, 0.02% NaN3. The desalted sample is applied to Superdex G200 column and chromatographed at 0.5 ml/min. […]

Row | Compound | IC50
1 | 2-[(Cyclopropylmethoxy-benzenesulfonyl)-(4-[1,2,4]triazol-1-yl-benzyl)-amino]-N-hydroxyacetamide-hydrochloride salt [Example 82b] | 0.6 nM
2 | COc1ccc(CN(CC(=O)NO)S(=O)(=O)c2ccc(OCCCCl)cc2)cc1 [Example 68, 2-{[4-(3-chloro-propoxy)-benzenesulfonyl]-(4-methoxy-benzyl)amino}-N-hydroxy-acetamide] | 5.2 nM
3 | C#CCOc1ccc(S(=O)(=O)N(CC(=O)NO)Cc2ccc(OC)cc2)cc1 [Example 75, [(4-methoxy-benzyl)-[4-prop-2-ynyloxy-benzenesulfonyl]-amino]-N-hydroxy-acetamide] | 1.4 nM
4 | C=CCCOc1ccc(S(=O)(=O)N(CC(=O)NO)Cc2ccc(-n3cncn3)cc2)cc1 [Example 79, 2-[(4-but-3-enyloxy-benzenesulfonyl)-(4-[1,2,4]triazol-1-yl-benzyl)-amino]-N-hydroxy-acetamide-hydrochloride salt] | 0.7 nM
5 | C=CCCOc1ccc(S(=O)(=O)N(CC(=O)NO)Cc2ccc(-n3ccnc3)cc2)cc1 [Example 80, 2-[(4-But-3-enyloxy-benzenesulfonyl)-(4-imidazol-1-yl-benzyl)-amino]-N-hydroxy-acetamide-hydrochloride] | 1.2 nM
6 | C=CCCOc1ccc(S(=O)(=O)N(CC(=O)NO)Cc2ccc(N3CCOCC3)cc2)cc1 [Example 81, 2-[(4-But-3-enyloxy-benzenesulfonyl)-(4-morpholin-4-yl-benzyl)-amino]-N-hydroxy-acetamide-hydrochloride] | 4.6 nM
7 | O=C(CN(Cc1ccc(-n2cncn2)cc1)S(=O)(=O)c1ccc(OCCC2CC2)cc1)NO [Example 82a] | 1.8 nM
8 | O=C(CN(Cc1ccc(-n2cncn2)cc1)S(=O)(=O)c1ccc(OCc2ccoc2)cc1)NO [Example 82c] | 10.7 nM
9 | C=CCCOc1ccc(S(=O)(=O)N(CC(=O)NO)Cc2cccc(F)n2)cc1 [Example 83a, 2-([4-But-3-enyloxy-benzenesulfonyl]-(6-fluoro-pyridine-2-yl)methyl-amino)-N-hydroxyacetamide] | 0.3 nM
10 | C=CCCOc1ccc(S(=O)(=O)N(CC(=O)NO)Cc2ccc(N3CCCC3)cc2)cc1 [Example 84a, 2-[(4-But-3-enyloxy-benzenesulfonyl)-(4-(pyrrolidin-1-yl)-benzyl)-amino]-N-hydroxyacetamide-hydrochloride] | 20.4 nM
